Experiments:
Human CB1 receptor [1] = target: T1, Human CB1 receptor (Homo sapiens, UniProt P21554); assay: In-vitro determination of functional activity to human CB1-receptors ([35S]GTPγS binding in presence of Win 55,212-2, CHO-CB1 membranes); type: biochemical; parameters: expressed in transfected cells; host or cells: CHO cells, stably transfected, membranes; conditions: for functional behaviour at CB1 receptor (inverse agonist or neutral antagonist): [35S]GTPγS binding relative to basal levels, FIG. 1
Protocol: The binding of [^35S]GTPγS was carried out using a modification of previously published methods Meschler, J. P., Kraichely, D. M., Wilken, G. M AND Howlet, A. C. […] Eur. J. Pharm. Sci. 2004, 23 (3): 233-43.
Human CB1 membranes were prepared from stably transfected CHO cells. Incubation mixtures consisted of CHO-CB1 membrane preparation at a final concentration of 15 μg of protein, compound (dose-response curve between 3 nM and 3 μM, final well concentration), Win 55,212-2 (0.3 μM final well concentration) and binding buffer (50 mM HEPES, pH 7.4, 100 mM KCl, 5 mM MgCl2, 1 mM EDTA, 0.1% wt/vol bovine serum albumin, 5 μM GDP, saponin 10 μg/ml). Subsequently [^35S]GTPγS (0.25 nM) was added, samples were incubated for 60 minutes at 30° C. and finally filtered. Radioactivity on filters was measured with Wallac Microbeta Trilux. Data analysis was performed by using Graph Pad Prism version 3.03 for windows. The bottom plateau of the analyzed sigmoid curves is considered the Emin (Minimal efficacy) value and values of Emin<0 represents inverse agonism of the compounds.

[2] = target: T2, cannabinoid CB1 receptors present in the central nervous system (Rattus norvegicus, UniProt P20272); assay: Prevention of hypothermia produced by CP55,940 in rat; type: in vivo; conditions: CP55,940 0.3 mg/kg ip, FIG. 4
T2 construct: from tissue; host or cells: live Wistar rat, central nervous system
Protocol: Male Wistar rats (220-270 g) were used. Rats were fed ad libitum with pellet standard rodent chow. Animals were maintained on a 12/12 hour light-dark cycle. They were randomized into groups for compound and vehicle dosing. Animals were first dosed, p.o., with vehicle (saline +1 drop of tween) or with the (4S,5S)-5-(4-chlorophenyl)-1-(2,4-dichlorophenyl)-N-(cis-2,6-dimethylpiperidin-1-yl)-4-methyl-4,5-dihydro-1H-pyrazole-3-carboxamide enantiomer (10 or 30 mg/kg) 60 minutes prior to the second administration, i.p., with vehicle or CP 55,940 (0.3 mg/kg). Body temperature was measured using a rectal probe connected to a thermometer (CIBERTEC). Measurements were performed at T=−60, 0, 60, 120 and 240 minutes following CP55,940 administration. CP,55,940 was administered just after the measurement of Body temperature at T=0.
Data were analyzed by a two-way (treatment, time) analysis of variance (ANOVA) with repeated measure on the time factor. A covariate was included to adjust for differences between treatment groups at baseline (Time 0). Comparisons between average treatment profiles were performed by defining appropriate tests for contrasts within the ANOVA analysis. A value of P<0.05 was considered significant. Data analysis was carried out with the SAS/STAT® release 9.1 statistical package (SAS Institute Inc., Cary, N.C.).

Human CB1 receptor [3] = target: T1, Human CB1 receptor; assay: In-vitro determination of affinity to human CB1-receptors ([3H] (+)-CP55,940 radioligand binding, HEK-293 membranes); parameters: expressed in transfected cells; conditions: [3H] (+)-CP55,940 0.45 nM
Protocol: Binding affinity for CB1 receptor was evaluated according to a modification of the Govaerts S J, Hermans E and Lambert D M. “Comparison of cannabinoid ligand affinities and efficacies in murine tissues and in transfected cells expressing human recombinant cannabinoid receptors”. Eur. J. Pharm. Sci. 2004, 23 (3): 233-43 described method. Human CB1 receptor was transfected into HEK-293 cells and a stable clone obtained and membranes prepared from this clone was used as the membrane source for radioligand binding studies. [3H] (+)-CP55,940 was used as radioligand at a final concentration of 0.45 nM. The incubation buffer was Tris-HCl 50 mM, MgCl2 5 mM, EDTA 1 mM, BSA 0.5%, pH 7.4 and the non-specific binding was determined with 10 μM of HU210. Samples were incubated at 37° C. for 60 min before filtration. Radioactivity on filters was measured with Wallac Winspectral 1414 counter by liquid scintillation in Ecoscint H (National Diagnostics, U.K.).

[4] = target: T3, CB1 receptors present in the CNS (Rattus norvegicus, UniProt P20272); assay: Reversion of the analgesic effect of CP-55,940 in tail flick test in rat; type: in vivo; conditions: 10 mg/kg oral
T3 construct: from tissue; host or cells: live Wistar rat, central nervous system
Protocol: (§1) Male CD1 mice (Charles River Laboratories), weighting 30 to 40 g (7-8 weeks old) and Male Wistar rats (Charles River Laboratories), weighting 260-300 g (7-8 weeks old) at the time of experiment, were housed in a controlled environment. Temperature was maintained at 22±2° C. on a 12-h light/dark cycle (On at 07:00 h and Off at 19:00 h) and food and water were available ad libitum. The experiments were performed during the light phase. The number of mice ranged from 4 to 15 per group in each individual experiment. Animals were always handled in accordance with ethical principles for the evaluation of pain in conscious animals (Zimmerman, 1983) and with the European Communities Council Directive of 24 November 1986 (86/609/ECC), and received approval by the local Ethical Committee.
CP-55,940 (Ref. 0949, Tocris; Wiley et al., 1995) was administrated by subcutaneous route at 0.3 mg/kg in a volume of 5 ml/kg in mice and by intraperitoneal route at 0.5 mg/kg in a volume of 2 ml/kg in rat. NESS-0327 (Ruiu et al., 2003) was administrated by intraperitoneal route at 0.3 mg/kg and 1 mg/kg in a volume of 10 ml/kg in mice. […]
The tail flick test was used to evaluate the antinociceptive effect of compounds. […] A noxious beam of light was focused on the mice tail about 4 cm from its tip, and the tail flick latency was recorded automatically to the nearest 0.1 s. […]

[5] = Selectivity for 170 targets
[6] = target: T4, CB1 receptors present in the CNS (Mus musculus, UniProt P47746); assay: Reversion of the analgesic effect of CP-55,940 in tail flick test in mice; type: in vivo; conditions: for reversion of the analgesic effect of CP-55,940: CP-55,940 0.3 mg/kg subcutaneous, FIG. 5
T4 construct: from tissue; host or cells: live CD1 mouse, central nervous system
Protocol: as §1
CP-55,940 (Ref. 0949, Tocris; Wiley et al., 1995) was administrated by subcutaneous route at 0.3 mg/kg in a volume of 5 ml/kg in mice and by intraperitoneal route at 0.5 mg/kg in a volume of 2 ml/kg in rat. NESS-0327 (Ruiu et al., 2003) was administrated by intraperitoneal route at 0.3 mg/kg and 1 mg/kg in a volume of 10 ml/kg in mice. […] All compounds were dissolved using HPMC (Hydroxypropyl methyl cellulose) which was prepared at a concentration of 0.5% in Milli-Q water.
The tail flick test was used to evaluate the antinociceptive effect of compounds. The test was performed as previously described (Moncada et al., 2003 and Robles et al., 1996). A noxious beam of light was focused on the mice tail about 4 cm from its tip, and the tail flick latency was recorded automatically to the nearest 0.1 s. The intensity of the radiant heat source was adjusted to produce latencies between 3-5 sec in vehicle treated mice and 2-4 sec in vehicle treated rats. In order to minimize cutaneous injuries a cut-off time of 10 s was used.
Mice were tested 60 min after subcutaneous administration of CP-55,940 (0.3 mg/kg) or vehicle (HPMC 0.5%).
Data are presented as tail flick latency responses in sec ±S.E.M and as percentage of analgesia ±S.E.M. The values in the control group were compared against those obtained in the treated groups. Statistical analysis to test intergroup comparisons was made using an initial one-way analysis of variant followed by the Newman-Keuls multiple comparison test. The level of significance was set at p<0.05.

T4 sequence (P47746 whole entry): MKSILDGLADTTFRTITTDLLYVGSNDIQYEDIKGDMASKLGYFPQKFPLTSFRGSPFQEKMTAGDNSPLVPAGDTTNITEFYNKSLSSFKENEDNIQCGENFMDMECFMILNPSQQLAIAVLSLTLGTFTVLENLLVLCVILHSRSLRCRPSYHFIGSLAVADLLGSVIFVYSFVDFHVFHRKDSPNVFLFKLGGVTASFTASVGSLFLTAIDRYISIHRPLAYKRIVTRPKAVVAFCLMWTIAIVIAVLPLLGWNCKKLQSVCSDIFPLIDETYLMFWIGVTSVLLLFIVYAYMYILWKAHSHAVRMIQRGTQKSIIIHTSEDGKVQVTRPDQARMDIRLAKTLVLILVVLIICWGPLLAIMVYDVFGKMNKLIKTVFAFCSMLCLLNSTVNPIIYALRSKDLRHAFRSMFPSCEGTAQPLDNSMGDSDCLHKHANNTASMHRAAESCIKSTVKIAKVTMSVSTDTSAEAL
T1 sequence (P21554 whole entry): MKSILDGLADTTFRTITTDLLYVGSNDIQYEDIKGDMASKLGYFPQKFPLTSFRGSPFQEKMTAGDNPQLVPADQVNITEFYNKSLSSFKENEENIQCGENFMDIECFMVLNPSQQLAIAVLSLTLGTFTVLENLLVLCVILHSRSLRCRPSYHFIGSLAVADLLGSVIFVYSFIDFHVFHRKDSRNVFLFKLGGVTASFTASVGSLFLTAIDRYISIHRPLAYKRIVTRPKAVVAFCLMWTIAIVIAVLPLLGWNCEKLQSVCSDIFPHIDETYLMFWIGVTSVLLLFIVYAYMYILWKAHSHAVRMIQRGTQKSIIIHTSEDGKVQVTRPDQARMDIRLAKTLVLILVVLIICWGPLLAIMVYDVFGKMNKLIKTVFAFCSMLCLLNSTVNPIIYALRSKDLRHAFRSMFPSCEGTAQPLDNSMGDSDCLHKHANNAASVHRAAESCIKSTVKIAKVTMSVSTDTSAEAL
T2 sequence (P20272 whole entry): as the sequence (P47746 whole entry) above, with D95E counted along it
T3 sequence (P20272 whole entry): as the sequence (P47746 whole entry) above, with D95E counted along it

Row | SMILES | functional behaviour at CB1 receptor (inverse agonist or neutral antagonist) (Human CB1 receptor [1]) | functional behaviour at CB1 receptor (inverse agonist or neutral antagonist) (Human CB1 receptor [1]; listed as racemate compound) | prevention of the hypothermia produced by CP55,940 ([2]; 10 mg/Kg p.o.) | prevention of the hypothermia produced by CP55,940 ([2]; 30 mg/Kg p.o.) | Ki (Human CB1 receptor [3]) | effect by itself in tail flick test ([4]; without CP-55,940) | effect by itself in tail flick test ([4]; without CP-55,940, listed as (4S,5S)-enantiomer) | functional behaviour at CB1 receptor (inverse agonist or neutral antagonist) (Human CB1 receptor [1]; listed as (4S,5S) compound) | Emin (Minimal efficacy) (Human CB1 receptor [1]; [35S]GTPγS binding, Win 55,212-2 0.3 μM, Emin<0 represents inverse agonism) | IC50 (Human CB1 receptor [1]; [35S]GTPγS binding, Win 55,212-2 0.3 μM, read-out: pIC50 (potency) (converted)) | selective for 170 targets [5] | effect by itself in tail flick test ([6]; 5 mg/kg intraperitoneal, without CP-55,940) | effect by itself in tail flick test ([6]; 5 mg/kg intraperitoneal, without CP-55,940, listed as (4S,5S)-enantiomer) | reversion of the analgesic effect of CP-55,940 ([6]; 0.3 mg/kg intraperitoneal) | effect by itself in tail flick test ([6]; 0.3 mg/kg intraperitoneal, without CP-55,940) | reversion of the analgesic effect of CP-55,940 ([6]; 1 mg/kg intraperitoneal) | effect by itself in tail flick test ([6]; 1 mg/kg intraperitoneal, without CP-55,940)
1 | CC1CCCC(C)N1NC(=O)C1=NN(c2ccc(Cl)cc2Cl)[C@H](c2ccc(Cl)cc2)[C@@H]1C (mixture of isomers) [racemate cis-compound, cis-5-(4-chlorophenyl)-1-(2,4-dichlorophenyl)-N-(2,6-dimethylpiperidin-1-yl)-4-methyl-4,5-dihydro-1H-pyrazole-3-carboxamide, reference compound] | behave as inverse agonists | CB1 inverse agonism | – | – | – | – | – | – | – | – | – | – | – | – | – | – | –
2 | C[C@@H]1C(C(=O)NN2[C@H](C)CCC[C@@H]2C)=NN(c2ccc(Cl)cc2Cl)[C@@H]1c1ccc(Cl)cc1 [(4S,5S)-5-(4-chlorophenyl)-1-(2,4-dichlorophenyl)-N-(cis-2,6-dimethylpiperidin-1-yl)-4-methyl-4,5-dihydro-1H-pyrazole-3-carboxamide] | neutral antagonist | – | does not significantly prevent | does not significantly prevent | 0.027 ± 0.01 µM | Neither Rimonabant (10 mg/kg) nor the ((4S,5S)-5-(4-chlorophenyl)-1-(2,4-dichlorophenyl)-N-(cis-2,6-dimethylpiperidin-1-yl)-4-methyl-4,5-dihydro-1H-pyrazole-3-carboxamide enantiomer (10 mg/kg) showed an effect by themselves | Neither Rimonabant (10 mg/kg) nor (4S,5S)-enantiomer (10 mg/kg) showed an effect by themselves | behaves as a neutral antagonist | −1±8 | 0.0302 µM | 99% | Neither Rimonabant (5 mg/kg) nor the (4S,5S)-5-(4-chlorophenyl)-1-(2,4-dichlorophenyl)-N-(cis-2,6-dimethylpiperidin-1-yl)-4-methyl-4,5-dihydro-1H-pyrazole-3-carboxamide enantiomer (5 mg/kg) showed an effect by themselves | Neither Rimonabant (5 mg/kg) nor the(4S,5S)-enantiomer (5 mg/kg) showed an effect by themselves | – | – | – | –
3 | O=C(NN1CCCCC1)c1nn(-c2ccc(Cl)cc2Cl)c2c1CCCc1cc(Cl)ccc1-2 [NESS-0327] | – | – | – | – | – | – | – | – | – | – | – | – | – | not at 0.3 mg/kg | Neither NESS-0327 (0.3 mg/kg) nor (1 mg/kg) showed an effect by themselves | significantly inhibited | Neither NESS-0327 (0.3 mg/kg) nor (1 mg/kg) showed an effect by themselves

Reference: patent publication US20110028517A1 (LABORATORIOS DEL DR. ESTEVE, S.A., priority 2008, published 2011)
